Reference: the supplement of paper PMC6045584
± gives the standard deviation of the averaged measurements.

Experiments:
NILOTINIB = compound: Cc1cn(-c2cc(NC(=O)c3ccc(C)c(Nc4nccc(-c5cccnc5)n4)c3)cc(C(F)(F)F)c2)cn1 [NILOTINIB]; experiment: surviving fraction relative to DMSO-only wells; higher = less growth inhibition; conditions: exposure time: 5 days
Summary of the method: (§1)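 Viability was determined by CellTiter-Glo luminescence, expressed as surviving fraction normalised to the median of DMSO-only wells. The cells were log-phase tumour cell lines seeded at 250–500 per well in 384-well plates and, after 24 hours, exposed continuously for five days to inhibitors at 0.5, 1, 5, 10, 50, 100, 500 and 1000 nM. Three screens per line were run, keeping only lines with replicate Pearson r >0.7 and median Z' >0.3.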

BEZ-235 = compound: Cn1c(=O)n(-c2ccc(C(C)(C)C#N)cc2)c2c3cc(-c4cnc5ccccc5c4)ccc3ncc21 [BEZ-235]; experiment: as above; conditions: exposure time: 5 days
Summary of the method: as §1

Test System	surviving fraction (NILOTINIB; 0.5 nM)	surviving fraction (NILOTINIB; 1 nM)	surviving fraction (NILOTINIB; 5 nM)	surviving fraction (NILOTINIB; 10 nM)	surviving fraction (NILOTINIB; 50 nM)	surviving fraction (NILOTINIB; 100 nM)	surviving fraction (NILOTINIB; 500 nM)	surviving fraction (NILOTINIB; 1000 nM)	surviving fraction (BEZ-235; 0.5 nM)	surviving fraction (BEZ-235; 1 nM)	surviving fraction (BEZ-235; 5 nM)	surviving fraction (BEZ-235; 10 nM)	surviving fraction (BEZ-235; 50 nM)	surviving fraction (BEZ-235; 100 nM)	surviving fraction (BEZ-235; 500 nM)	surviving fraction (BEZ-235; 1000 nM)
SNU475 LIVER	1.05 ± 0.028	1 ± 0.036	1.01 ± 0.031	1.04 ± 0.017	0.941 ± 0.026	0.939 ± 0.03	0.953 ± 0.024	0.858 ± 0.076	1.03 ± 0.038	1 ± 0.07	0.921 ± 0.036	0.932 ± 0.039	0.423 ± 0.018	0.285 ± 0.0051	0.137 ± 0.015	0.148 ± 0.0081
MFM223 BREAST	1.11 ± 0.085	1.15 ± 0.12	1.08 ± 0.058	1.08 ± 0.056	0.798 ± 0.048	0.931 ± 0.15	0.9 ± 0.11	0.912 ± 0.13	1.12 ± 0.069	1.13 ± 0.043	1.11 ± 0.06	1.15 ± 0.079	0.932 ± 0.071	0.588 ± 0.018	0.206 ± 0.018	0.179 ± 0.0092
MDAMB453 BREAST	1 ± 0.045	0.998 ± 0.097	1.03 ± 0.077	1.05 ± 0.088	0.91 ± 0.02	0.925 ± 0.016	0.895 ± 0.0087	0.874 ± 0.068	1.05 ± 0.066	1.05 ± 0.022	1.09 ± 0.015	1.05 ± 0.057	0.574 ± 0.046	0.359 ± 0.025	0.197 ± 0.011	0.169 ± 0.012
JIMT1 BREAST	0.946 ± 0.041	0.955 ± 0.045	0.975 ± 0.039	0.964 ± 0.07	0.931 ± 0.054	0.958 ± 0.086	0.97 ± 0.045	0.924 ± 0.054	1.03 ± 0.031	0.992 ± 0.024	0.983 ± 0.0095	0.992 ± 0.019	0.732 ± 0.03	0.464 ± 0.04	0.21 ± 0.013	0.194 ± 0.009
MHM BONE	1.01 ± 0.028	0.999 ± 0.05	1.09 ± 0.014	1.06 ± 0.028	1.11 ± 0.023	1.13 ± 0.025	1.135 ± 0.0021	1.19 ± 0.059	1.01 ± 0.021	0.995 ± 0.02	1.025 ± 0.0021	1.036 ± 0.0079	0.991 ± 0.018	0.885 ± 0.028	0.427 ± 0.011	0.351 ± 0.016
HOSMNG BONE	0.898 ± 0.073	0.97 ± 0.062	0.956 ± 0.044	0.937 ± 0.039	1.03 ± 0.03	0.957 ± 0.064	1.07 ± 0.029	1.22 ± 0.018	0.956 ± 0.014	0.96 ± 0.041	0.929 ± 0.022	0.958 ± 0.05	0.917 ± 0.044	0.772 ± 0.035	0.426 ± 0.0052	0.297 ± 0.012
BT20 BREAST	1.076 ± 0.0072	1.073 ± 0.0027	1.06 ± 0.05	1.16 ± 0.084	0.913 ± 0.14	1.01 ± 0.14	0.984 ± 0.12	0.878 ± 0.062	1.13 ± 0.062	1.07 ± 0.18	1.04 ± 0.14	1.03 ± 0.082	0.619 ± 0.051	0.42 ± 0.087	0.265 ± 0.044	0.246 ± 0.031
CAL72 BONE	1.02 ± 0.031	1.06 ± 0.018	1.03 ± 0.038	1.06 ± 0.018	0.979 ± 0.033	1.02 ± 0.013	0.969 ± 0.062	0.977 ± 0.06	1.05 ± 0.026	1.06 ± 0.041	1.07 ± 0.043	1.03 ± 0.041	0.754 ± 0.053	0.369 ± 0.021	0.142 ± 0.011	0.124 ± 0.0079
